The values below come from article doi:10.1101/2025.11.06.687025v1 (biorxiv, 2025).

For orientation: pIC50 means the negative decadic logarithm of the IC50, by convention in mol/L. Low values mean a large IC50, high ones a small IC50. As a reminder, the pEC50 is the EC50 on a negative log10 scale, so that one unit is a factor of ten.

SMILES strings stand for the structures. pEC50, pIC50: −log10 of the molar value.

Test [1] addresses T1, mouse serotonin 5-HT2C receptor (Mus musculus, UniProt P34968).
T1 construct: gene Htr2c; recombinant receptor stably expressed in HEK293 (HEK/5-HT2C cells)
T1 sequence (P34968 33-459): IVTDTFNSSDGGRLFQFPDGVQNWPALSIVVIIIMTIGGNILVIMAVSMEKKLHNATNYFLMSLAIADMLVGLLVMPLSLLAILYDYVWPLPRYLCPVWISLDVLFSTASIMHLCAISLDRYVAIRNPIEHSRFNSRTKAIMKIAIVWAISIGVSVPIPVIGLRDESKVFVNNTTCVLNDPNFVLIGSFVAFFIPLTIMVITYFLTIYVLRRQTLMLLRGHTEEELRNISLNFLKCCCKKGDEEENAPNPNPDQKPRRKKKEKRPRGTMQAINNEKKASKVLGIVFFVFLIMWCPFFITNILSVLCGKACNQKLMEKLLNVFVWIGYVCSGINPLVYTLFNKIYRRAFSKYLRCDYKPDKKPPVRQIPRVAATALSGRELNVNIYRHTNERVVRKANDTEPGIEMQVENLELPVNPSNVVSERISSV
The test is described as follows: Fura-2 Ca2+ imaging, fraction of responsive HEK/5-HT2C cells, Hill fit. The class given is cell-based.

The target in test [2] is T1, mouse serotonin 5-HT2C receptor. The description is as above. The class given is cell-based. This is another data set of the same source.

On to `O=c1cc(N2CCOCC2)oc2c(-c3ccccc3)cccc12` [LY294002], for which the pIC50 in test [1] is 5.92.

On to `O=c1cc(N2CCNCC2)oc2c(-c3ccccc3)cccc12` [LY303511], for which the negative-log EC50 (pEC50) in test [2] is 5.60.
